# Experimental data from paper PMC9706563, “Development of Macrocyclic PRMT5–Adaptor Protein Interaction Inhibitors” (Journal of Medicinal Chemistry, 2022).
# Square brackets hold non-standard residues; d marks the D form. Peptide text beside a SMILES is read from it. * marks the point of attachment. FITC = O=C1OC2(c3ccc(O)cc3Oc3cc(O)ccc32)c2ccc(NC(=S)*)cc21; NMeF = CN[C@@H](Cc1ccccc1)C(=O)O; hPhe = N[C@@H](CCc1ccccc1)C(=O)O; NMeD = CN[C@@H](CC(=O)O)C(=O)O; NMeV = CN[C@H](C(=O)O)C(C)C; NMeA = CN[C@@H](C)C(=O)O; Sar = CNCC(=O)O
# Target: T1, PRMT5-MEP50 (Homo sapiens, UniProt O14744)
# T1 construct: The compounds were tested by means of FP with the full-length PRMT5-MEP50 complex; made in house
# T1 sequence (O14744 whole entry): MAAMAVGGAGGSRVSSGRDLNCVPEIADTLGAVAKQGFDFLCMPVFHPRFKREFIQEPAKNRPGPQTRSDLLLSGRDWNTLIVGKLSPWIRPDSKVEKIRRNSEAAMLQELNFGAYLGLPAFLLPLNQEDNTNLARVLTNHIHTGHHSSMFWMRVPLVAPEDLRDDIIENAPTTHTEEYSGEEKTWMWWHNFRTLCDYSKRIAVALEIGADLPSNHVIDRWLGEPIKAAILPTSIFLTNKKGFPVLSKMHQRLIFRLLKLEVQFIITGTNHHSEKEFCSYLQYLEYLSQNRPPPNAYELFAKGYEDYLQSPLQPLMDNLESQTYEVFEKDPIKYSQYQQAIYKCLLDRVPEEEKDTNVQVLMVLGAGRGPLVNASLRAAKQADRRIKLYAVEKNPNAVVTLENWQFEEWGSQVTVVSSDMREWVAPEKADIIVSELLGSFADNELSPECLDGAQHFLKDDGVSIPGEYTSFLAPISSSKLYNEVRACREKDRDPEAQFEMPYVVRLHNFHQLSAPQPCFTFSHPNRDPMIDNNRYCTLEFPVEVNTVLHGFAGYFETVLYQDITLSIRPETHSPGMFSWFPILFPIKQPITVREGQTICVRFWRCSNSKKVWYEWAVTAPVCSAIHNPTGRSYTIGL
# T1 sequence (Q9BQA1 whole entry partner): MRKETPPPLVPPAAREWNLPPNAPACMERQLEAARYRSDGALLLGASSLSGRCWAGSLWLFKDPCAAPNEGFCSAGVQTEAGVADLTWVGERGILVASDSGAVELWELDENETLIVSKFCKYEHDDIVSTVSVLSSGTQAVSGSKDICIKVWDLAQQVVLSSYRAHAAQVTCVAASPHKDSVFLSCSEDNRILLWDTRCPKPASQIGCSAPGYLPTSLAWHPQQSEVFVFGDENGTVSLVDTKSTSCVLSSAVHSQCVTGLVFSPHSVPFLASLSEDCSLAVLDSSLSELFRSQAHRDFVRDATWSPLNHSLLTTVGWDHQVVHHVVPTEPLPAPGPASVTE
# Experiment: Direct binding fluorescence polarization (FP) assay of FITC-labeled peptides
# Conditions: FITC-labeled peptide 1 nM, PRMT5-MEP50 titrated, read-out: KD
# Protocol: The assay was performed in a buffer of 50 mM 4-(2-hydroxyethyl)-1-piperazineethanesulfonic acid (HEPES), 250 mM NaCl, 1 mM tris(2-carboxyethyl)phosphine (TCEP), and 0.01% (v/v) Tween 20, pH 8.0, in black, 384-well plates with a total volume of 10 μL per well. […] The plates were incubated at room temperature for 1 to 2 h and analyzed on a plate reader using 485 nm excitation and 535 nm emission wavelength. The assay was performed in triplicate.
row,Compound,Kd [nM]
1,CC(C)[C@H](NC(=O)COCCOCCNC(=S)Nc1ccc2c(c1)C(=O)OC21c2ccc(O)cc2Oc2cc(O)ccc21)C(=O)N1CCC[C@H]1C(=O)NCC(=O)N[C@@H](CCC(N)=O)C(=O)N[C@@H](Cc1ccccc1)C(=O)N[C@@H](CC(=O)O)C(=O)N[C@@H](CC(=O)O)C(=O)N[C@@H](C)C(=O)N[C@@H](CC(=O)O)C(N)=O [Compound 28] (HELM PEPTIDE1{[O=C1OC2(c3ccc(O)cc3Oc3cc(O)ccc32)c2ccc(NC(=S)[*:2])cc21].[O=C(COCCOCCN[*:1])[*:2]].V.P.G.Q.F.D.D.A.D.[am]}$$$$V2.0),905 ± 104
2,CC(=O)N[C@H](C(=O)N1CCC[C@H]1C(=O)NCC(=O)N[C@@H](CCC(N)=O)C(=O)N[C@@H](Cc1ccccc1)C(=O)N[C@@H](CC(=O)O)C(=O)N[C@@H](CC(=O)O)C(=O)N[C@@H](C)C(=O)N[C@@H](CC(=O)O)C(=O)N[C@@H](CCCCNC(=S)Nc1ccc2c(c1)C(=O)OC21c2ccc(O)cc2Oc2cc(O)ccc21)C(N)=O)C(C)C [Compound 29] (Ac-VPGQFDDADK(FITC)-NH2),670 ± 187
3,CC(=O)N[C@H](C(=O)N1CCC[C@H]1C(=O)NCC(=O)N[C@@H](CCC(N)=O)C(=O)N[C@@H](Cc1ccccc1)C(=O)N[C@@H](CC(=O)O)C(=O)N[C@@H](CC(=O)O)C(=O)N[C@@H](C)C(=O)N(C)[C@@H](CC(=O)O)C(=O)N[C@@H](CCCCNC(=S)Nc1ccc2c(c1)C(=O)OC21c2ccc(O)cc2Oc2cc(O)ccc21)C(N)=O)C(C)C [Compound 44] (Ac-VPGQFDDA[NMeD]K(FITC)-NH2),600 ± 100
4,CC(=O)N[C@H](C(=O)N1CCC[C@H]1C(=O)N[C@@H]1CCCCC[C@@H](C(=O)N[C@@H](CC(=O)O)C(=O)N[C@@H](C)C(=O)N[C@@H](CC(C(=O)O)C(=O)O)C(=O)N[C@@H](CCCCNC(=S)Nc2ccc3c(c2)C(=O)OC32c3ccc(O)cc3Oc3cc(O)ccc32)C(N)=O)NC(=O)[C@H](Cc2ccc([N+](=O)[O-])cc2)NC(=O)[C@H](CCC(N)=O)NC1=O)C(C)C [Compound 50],89 ± 11

# Same assay, conditions: supplementary CSV, read-out: PRMT5-MEP50 Kd
row,Compound,Kd [nM]
1,"CC(=O)N[C@H](C(=O)N1CCC[C@H]1C(=O)NCC(=O)N[C@@H](CCC(N)=O)C(=O)N[C@@H](Cc1ccccc1)C(=O)N[C@@H](CC(=O)O)C(=O)N[C@@H](CC(=O)O)C(=O)N(C)[C@@H](C)C(=O)N[C@@H](CC(=O)O)C(=O)N[C@@H](CCCCNC(=S)Nc1ccc2c(c1)C(=O)OC21c2ccc(O)cc2Oc2cc(O)ccc21)C(N)=O)C(C)C [Compound 45, Ac-VPGQFDD-(N-Me)A-DK(Fitc)-NH2] (Ac-VPGQFDD[NMeA]DK(FITC)-NH2)",> 2000
2,"CC(=O)N[C@H](C(=O)N1CCC[C@H]1C(=O)NCC(=O)N[C@@H](CCC(N)=O)C(=O)N[C@@H](Cc1ccccc1)C(=O)N[C@@H](CC(=O)O)C(=O)N(C)[C@@H](CC(=O)O)C(=O)N[C@@H](C)C(=O)N[C@@H](CC(=O)O)C(=O)N[C@@H](CCCCNC(=S)Nc1ccc2c(c1)C(=O)OC21c2ccc(O)cc2Oc2cc(O)ccc21)C(N)=O)C(C)C [Compound 46, Ac-VPGQFD-(N-Me)D-ADK(Fitc)-NH2] (Ac-VPGQFD[NMeD]ADK(FITC)-NH2)",> 2000
3,"CC(=O)N[C@H](C(=O)N1CCC[C@H]1C(=O)NCC(=O)N[C@@H](CCC(N)=O)C(=O)N(C)[C@@H](Cc1ccccc1)C(=O)N[C@@H](CC(=O)O)C(=O)N[C@@H](CC(=O)O)C(=O)N[C@@H](C)C(=O)N[C@@H](CC(=O)O)C(=O)N[C@@H](CCCCNC(=S)Nc1ccc2c(c1)C(=O)OC21c2ccc(O)cc2Oc2cc(O)ccc21)C(N)=O)C(C)C [Compound 47, Ac-VPGQ-(N-Me)F-DDADK(Fitc)-NH2] (Ac-VPGQ[NMeF]DDADK(FITC)-NH2)",> 2000
4,"CC(=O)N[C@H](C(=O)N1CCC[C@H]1C(=O)N(C)CC(=O)N[C@@H](CCC(N)=O)C(=O)N[C@@H](Cc1ccccc1)C(=O)N[C@@H](CC(=O)O)C(=O)N[C@@H](CC(=O)O)C(=O)N[C@@H](C)C(=O)N[C@@H](CC(=O)O)C(=O)N[C@@H](CCCCNC(=S)Nc1ccc2c(c1)C(=O)OC21c2ccc(O)cc2Oc2cc(O)ccc21)C(N)=O)C(C)C [Compound 48, Ac-VP-(N-Me)G-QFDDADK(Fitc)-NH2] (Ac-VP[Sar]QFDDADK(FITC)-NH2)",> 2000
5,CC(=O)N(C)[C@H](C(=O)N1CCC[C@H]1C(=O)NCC(=O)N[C@@H](CCC(N)=O)C(=O)N[C@@H](Cc1ccccc1)C(=O)N[C@@H](CC(=O)O)C(=O)N[C@@H](CC(=O)O)C(=O)N[C@@H](C)C(=O)N[C@@H](CC(=O)O)C(=O)N[C@@H](CCCCNC(=S)Nc1ccc2c(c1)C(=O)OC21c2ccc(O)cc2Oc2cc(O)ccc21)C(N)=O)C(C)C [Compound 49] (Ac-[NMeV]PGQFDDADK(FITC)-NH2),> 2000

# Now from value to compound:
row,Kd [nM],Compound
1,531 ± 23,CC(=O)N[C@H](C(=O)N1CCC[C@H]1C(=O)NCC(=O)N[C@@H](CCC(N)=O)C(=O)N[C@@H](Cc1ccccc1)C(=O)N[C@@H](CC(=O)O)C(=O)N[C@@H](CC(=O)O)C(=O)N[C@@H](C)C(=O)N[C@@H](CCC(=O)O)C(=O)N[C@@H](CCCCNC(=S)Nc1ccc2c(c1)C(=O)OC21c2ccc(O)cc2Oc2cc(O)ccc21)C(N)=O)C(C)C [Compound 33] (Ac-VPGQFDDAEK(FITC)-NH2)
2,587 ± 142,CC(=O)N[C@H](C(=O)N1CCC[C@H]1C(=O)NCC(=O)N[C@@H](CCC(N)=O)C(=O)N[C@@H](Cc1ccccc1)C(=O)N[C@@H](CC(=O)O)C(=O)N[C@@H](CC(=O)O)C(=O)N[C@@H](C)C(=O)N(C)[C@@H](CC(=O)O)C(=O)N[C@@H](CCCCNC(=S)Nc1ccc2c(c1)C(=O)OC21c2ccc(O)cc2Oc2cc(O)ccc21)C(N)=O)C(C)C [Compound 44] (Ac-VPGQFDDA[NMeD]K(FITC)-NH2)
3,> 1000,CC(=O)N[C@@H](Cc1ccc(O)cc1)C(=O)N1CCC[C@H]1C(=O)NCC(=O)N[C@@H](CCC(N)=O)C(=O)N[C@@H](Cc1ccccc1)C(=O)N[C@@H](CC(=O)O)C(=O)N[C@@H](CC(=O)O)C(=O)N[C@@H](C)C(=O)N[C@@H](CC(=O)O)C(=O)N[C@@H](CCCCNC(=S)Nc1ccc2c(c1)C(=O)OC21c2ccc(O)cc2Oc2cc(O)ccc21)C(N)=O [Compound S2] (Ac-YPGQFDDADK(FITC)-NH2)
4,> 1000,CC(=O)N[C@@H](Cc1ccccc1)C(=O)N1CCC[C@H]1C(=O)NCC(=O)N[C@@H](CCC(N)=O)C(=O)N[C@@H](Cc1ccccc1)C(=O)N[C@@H](CC(=O)O)C(=O)N[C@@H](CC(=O)O)C(=O)N[C@@H](C)C(=O)N[C@@H](CC(=O)O)C(=O)N[C@@H](CCCCNC(=S)Nc1ccc2c(c1)C(=O)OC21c2ccc(O)cc2Oc2cc(O)ccc21)C(N)=O [Compound S3] (Ac-FPGQFDDADK(FITC)-NH2)
5,> 1000,CC(=O)N[C@@H](CCc1ccccc1)C(=O)N1CCC[C@H]1C(=O)NCC(=O)N[C@@H](CCC(N)=O)C(=O)N[C@@H](Cc1ccccc1)C(=O)N[C@@H](CC(=O)O)C(=O)N[C@@H](CC(=O)O)C(=O)N[C@@H](C)C(=O)N[C@@H](CC(=O)O)C(=O)N[C@@H](CCCCNC(=S)Nc1ccc2c(c1)C(=O)OC21c2ccc(O)cc2Oc2cc(O)ccc21)C(N)=O [Compound S4] (Ac-[hPhe]PGQFDDADK(FITC)-NH2)
6,> 1000,CC(=O)N[C@@H](Cc1c[nH]c2ccccc12)C(=O)N1CCC[C@H]1C(=O)NCC(=O)N[C@@H](CCC(N)=O)C(=O)N[C@@H](Cc1ccccc1)C(=O)N[C@@H](CC(=O)O)C(=O)N[C@@H](CC(=O)O)C(=O)N[C@@H](C)C(=O)N[C@@H](CC(=O)O)C(=O)N[C@@H](CCCCNC(=S)Nc1ccc2c(c1)C(=O)OC21c2ccc(O)cc2Oc2cc(O)ccc21)C(N)=O [Compound S5] (Ac-WPGQFDDADK(FITC)-NH2)
7,> 1000,CC(=O)N[C@@H](CC(=O)O)C(=O)N1CCC[C@H]1C(=O)NCC(=O)N[C@@H](CCC(N)=O)C(=O)N[C@@H](Cc1ccccc1)C(=O)N[C@@H](CC(=O)O)C(=O)N[C@@H](CC(=O)O)C(=O)N[C@@H](C)C(=O)N[C@@H](CC(=O)O)C(=O)N[C@@H](CCCCNC(=S)Nc1ccc2c(c1)C(=O)OC21c2ccc(O)cc2Oc2cc(O)ccc21)C(N)=O [Compound S6] (Ac-DPGQFDDADK(FITC)-NH2)
